Measurements published in patent publication US8603498B2, “Lipo-phosphated or lipo-sulphated compound, compositions comprising it and topical uses thereof” (Sederma, S.A.S., priority 2010, dated 2013).

Test system: collagen I
Assay: Synthesis of collagen I on human dermal fibroblast (immunolabeling)
Format: cell-based
Conditions: 10^−6%, positive control
Method: Normal human fibroblasts (NHF) are cultivated in MW24 plates for 24 hours. The cells are contacted or not with the Lipo-Phosphomalate of the invention at various concentrations for 7 days. The synthesis of collagen I produced by the cells is then quantified by immunolabeling fixed on the layers using a specific antibody. Quantification by image analysis is then performed on the photos. TGF-β1 is used as positive control.
An analysis of variance was performed on the data (cases treated compared with untreated cases). In the case of identity of variances, a Student't test was then performed on the means.

## TGF- β1: positive control for laminin and collagen I synthesis
  collagen I % Variation/control: +1374%;
  collagen I AFU mean: 55 +/− 17.6 AFU
